Results taken from patent US6380251B1, “Cyclopentane heptan(ene)oic acid, 2-thiocarbamoyloxy and 2-carbamoyloxy compounds as therapeutic agents” (Allergan Sales, Inc., priority 2000, dated 2002).

system: PGF2α-sensitive receptor provisionally termed FPVASC; test: relaxation of smooth muscle of isolated rabbit jugular vein; format: cell-based; conditions: not given
Experimental: Activity at different prostanoid receptors was measured in vitro in isolated smooth muscle preparations. FP-activity was measured as contraction of the isolated feline iris sphincter. Activity was also measured as relaxation of smooth muscle of isolated rabbit jugular vein a preparation which appears to contain a unique PGF2α-sensitive receptor provisionally termed FPVASC. TP-vasoconstrictor activity was measured as contraction of rings of the isolated rat thoracic aorta.
Many examples also have pronounced activity at the FP receptor, provisionally termed FP associated with the vascular endothelium in the rabbit jugular vein preparation. Since such agents would be vasodilators they have potential in hypertension and any disease where tissue blood perfusion is compromised. Such indications include, but are not limited to, systemic hypertension, angina, stroke, retinal vascular diseases, claudication, Raynauds disease, diabetes, and pulmonary hypertension.

Row | EC50 [nM] | Compound
1 | 171 | CCCCNC(=S)OC[C@@H]1[C@@H](C/C=C\CCCC(=O)O)[C@@H](O)C[C@H]1O [Example 11, (Z)-7-((1R,2S,3R,5S)-2-Butylthiocarbamoyloxymethyl-3,5-dihydroxycyclopentyl)-hept-5-enoic acid]
2 | 3 | O=C(O)CCC/C=C\C[C@@H]1[C@@H](COC(=S)NCc2cccc(Cl)c2)[C@H](O)C[C@@H]1O [Example 12, (Z)-7-[(1R,2S,3R,5S)-2-(3-Chlorobenzylthiocarbamoyloxymethyl)-3,5-dihydroxycyclopentyl]hept-5-enoic acid]
3 | 2910 | CCNC(=O)CCC/C=C\C[C@@H]1[C@@H](COC(=S)NCc2cccc(Cl)c2)[C@H](O)C[C@@H]1O [Example 19, (3-Chlorobenzyl)thiocarbamic acid O-[(1S,2R,3S,5R)-2-((Z)-6-ethylcarbamoylhex-2-enyl)-3,5-dihydroxycyclopentylmethyl]ester]
4 | 32000 | O=C(O)CCC/C=C\C[C@@H]1[C@@H](COC(=O)NCCc2cccs2)[C@H](O)C[C@@H]1O [Example 10, (Z)-7-[(1R,2S,3R,5S)-3,5-Dihydroxy-2-(2-thiophen-2-ylethylcarbamoyloxymethyl)-cyclopentyl]hept-5-enoic acid]
5 | 178 | O=C(O)CCC/C=C\C[C@@H]1[C@@H](COC(=S)NCc2cccc(C(F)(F)F)c2)[C@H](O)C[C@@H]1O [Example 14, (Z)-7-[(1R,2S,3R,5S)-3,5-Dihydroxy-2-(3-trifluoromethylbenzylthiocarbamoyloxymethyl)cyclopentyl]hept-5-enoic acid]
6 | 274 | NC(=O)CCC/C=C\C[C@@H]1[C@@H](COC(=S)NCc2cccc(Cl)c2)[C@H](O)C[C@@H]1O [Example 20, (3-Chlorobenzyl)thiocarbamic acid O-[(1S,2R,3S,5R)-2-((Z)-6-carbamoylhex-2-enyl)-3,5-dihydroxycyclopentylmethyl]ester]
7 | 193000 | O=C(O)CCC/C=C\C[C@H]1C(O)CC(O)[C@@H]1COC(=O)Nc1ccccc1 (stereo partly drawn) [Example 3, (Z)-7-((1R,2S,3R,5S)-3,5-Dihydroxy-2-phenzylcarbamoyloxymethylcyclopentyl)-hept-5-enoic acid]
8 | 427 | O=C(O)CCC/C=C\C[C@H]1C(O)CC(O)[C@@H]1COC(=S)NCc1ccccc1 (stereo in doubt) [Example 9, 7-[2-Benzylthiocarbamoyloxymethyl-3,5-dihydroxycyclopentyl]hept-5-enoic acid]
9 | 11000 | O=C(CCC/C=C\C[C@@H]1[C@@H](COC(=S)NCc2cccc(Cl)c2)[C@H](O)C[C@@H]1O)NCCO [Example 18, (3-Chlorobenzyl)thiocarbamic acid O-{(1S,2R,3S,5R)-3,5-dihydroxy-2-[(Z)-6-(2-hydroxyethylcarbamoyl)hex-2-enyl]cyclopentylmethyl}ester]
10 | 2840 | O=C(O)CCC/C=C\C[C@@H]1[C@@H](COC(=O)NCc2cccc(C(F)(F)F)c2)[C@H](O)C[C@@H]1O [Example 13, (Z)-7-[(1R,2S,3R,5S)-3,5-Dihydroxy-2-(3-trifluoromethylbenzylcarbamoyloxymethyl)cyclopentyl]hept-5-enoic acid]
11 | 14200 | O=C(O)CCC/C=C\C[C@H]1C(O)CC(O)[C@@H]1COC(=O)NCc1ccccc1 (stereo in doubt) [Example 6, 7-[2-Benzylcarbamoyloxymethyl-3,5-dihydroxycyclopentyl]hept-5-enoic acid]

system: Dog intraocular pressure; test: Dog intraocular pressure by applanation pneumatonometry; format: in vivo; conditions: dogs, 25 μl to the ocular surface, contralateral eye vehicle, measured before and at 6 hours; FIGS. 3 and 4
Experimental: The compounds were prepared at the said concentrations in a vehicle comprising 0.1% polysorbate 80 and 10 mM TRIS base. Dogs were treated by administering 25 μl to the ocular surface, the contralateral eye received vehicle as a control. Intraocular pressure was measured by applanation pneumatonometry. Dog intraocular pressure was measured immediately before drug administration and at 6 hours thereafter.

Row | Compound | effect on intraocular pressure
12 | O=C(O)CCC/C=C\C[C@@H]1[C@@H](COC(=S)NCc2cccc(Cl)c2)[C@H](O)C[C@@H]1O [Example 12, (Z)-7-[(1R,2S,3R,5S)-2-(3-Chlorobenzylthiocarbamoyloxymethyl)-3,5-dihydroxycyclopentyl]hept-5-enoic acid] | lowered intraocular pressure
13 | O=C(O)CCC/C=C\C[C@H]1C(O)CC(O)[C@@H]1COC(=S)NCc1ccccc1 (stereo in doubt) [Example 9, 7-[2-Benzylthiocarbamoyloxymethyl-3,5-dihydroxycyclopentyl]hept-5-enoic acid] | lowered intraocular pressure
